These results are taken from US20030054411A1, “GPR motifs and uses thereof” (priority 2001, published 2003).

Where no end group is shown, it is not given here.

Assay [1] deals with T1, Giα2 binding to GST-AGS3-GPR (Homo sapiens, UniProt P04899).
T1 construct: made in house; host or cells: Sf9 insect cells (Giα2)
Briefly: Protein interaction assay: Giα2 binding to AGS3-GPR with GPR peptides. The settings on record: 10 μM GDP; read-out: IC50 for blocking the binding of Giα2 to GST-AGS3-GPR. As to the method: (§1) A and B, the carboxyl region of AGS3 (Pro^463-Ser^650) containing all four GPR repeats was generated as a His-tagged (A) or GST fusion (B) protein for protein interaction assays as described under Examples. All interactions were done in the presence of 10 μM GDP, and the input lanes represent one-tenth of the G-protein used in each interaction assay. A, Giα1 (75 nM) was incubated with 300 nM His-tagged AGS3-GPR in the absence and presence of increasing amounts of the GPR peptide, after which bound Giα was isolated on a nickel affinity matrix, and samples were processed for immunoblotting with Giα antisera. […] C and D, GTPγ^35S binding to G-proteins (100 nM) was measured in the absence and presence of peptides as described in the Examples. Data are expressed as the percent of specific binding (˜5 pmol) observed in the absence of peptide and represent the means±S.E. derived from three experiments. […]
(§2) Protein Interaction Assays—The GPR domain of AGS3 (Pro^463-Ser^650) containing the four GPR motifs was generated as a glutathione S-transferase fusion protein by polymerase chain reaction using the full-length cDNA of AGS3 as a template. […] The interaction of GST-AGS3-GPR and HIS-tagged AGS3-GPR with G-proteins was assessed by protein interaction experiments using purified G-protein as described previously (33). […]

The target of a further assay is T2, Giα2 (Homo sapiens, UniProt P04899).
T2 construct: made in house; host or cells: Sf9 insect cells
Briefly: GTPγS binding assay, Giα2. It counts as biochemical. The note with it: G-protein 100 nM, 30 min, 24° C.; read-out: IC50 for inhibition of GTPγS binding to Giα2. As to the method: (§3) A and B, the carboxyl region of AGS3 (Pro^463-Ser^650) containing all four GPR repeats was generated as a His-tagged (A) or GST fusion (B) protein for protein interaction assays as described under Examples. All interactions were done in the presence of 10 μM GDP, and the input lanes represent one-tenth of the G-protein used in each interaction assay. A, Giα1 (75 nM) was incubated with 300 nM His-tagged AGS3-GPR in the absence and presence of increasing amounts of the GPR peptide, after which bound Giα was isolated on a nickel affinity matrix, and samples were processed for immunoblotting with Giα antisera. The blot in the upper panel of A was stripped and reprobed with AGS3 antisera to provide internal controls for protein loading. B, Giα2 (75 nM) was incubated with 300 nM AGS3-GPR or GST in the presence and absence of 100 μM GPR consensus peptide, GPR peptide Q15A, or GPR peptide R23F. The immunoblots presented in A and B are representative of three experiments. C and D, GTPγ^35S binding to G-proteins (100 nM) was measured in the absence and presence of peptides as described in the Examples. Data are expressed as the percent of specific binding (˜5 pmol) observed in the absence of peptide and represent the means±S.E. derived from three experiments. The concentration of peptides in D is 10 μM.
GTPγS Binding Assays—GTPγS binding assays were generally conducted as described (39). G-proteins (100 nM) were preincubated for 20 min at 24° C. in the presence and absence of GPR peptides. Binding assays (duplicate determinations) were initiated by addition of 0.5 μM GTPγS (4.0×10^4 dpm/pmol), and incubations (total volume=50 μl) were continued for 30 min at 24° C. Both preincubations and GTPγS binding assays were conducted in binding buffer containing 2 mM MgCl2. Reactions were terminated by rapid filtration through nitrocellulose filters with 4×4-ml washes of stop buffer (50 mM Tris-HCl, 5 mM MgCl2, 1 mM EDTA, pH 7.4, at 4° C.). Radioactivity bound to the filters was determined by liquid scintillation counting. Nonspecific binding was defined by 100 μM […].
Background: GTPγS is a poorly hydrolysed GTP analogue; its binding reports G protein activation.

For the next assay, the target named is T3, Giα1 (Homo sapiens, UniProt P63096).
T3 construct: made in house; host or cells: Sf9 insect cells
Kind of assay: GTPγS binding assay, Giα1. It counts as biochemical. As to the method: as §3, with “The immunoblots presented in A and B are representative of three experiments.” left out, “The concentration of peptides in D is 10 μM.” left out
GTPγS Binding Assays—GTPγS binding assays were generally conducted as described (39). […] Radioactivity bound to the filters was determined by liquid scintillation counting. […]

Assay [2] deals with T4, Giα1 binding to GST-AGS3-GPR (Homo sapiens, UniProt P63096).
T4 construct: made in house; host or cells: Sf9 insect cells (Giα1); bacteria (His-AGS3-GPR)
Briefly: Protein interaction assay: Giα1 binding to AGS3-GPR with GPR peptide. The settings on record: 10 μM GDP; Giα1 75 nM, AGS3-GPR 300 nM; read-out: IC50 for blocking the binding of Giα1 to GST-AGS3-GPR. As to the method: as §1, §2

Another assay concerns the target Gtα (Homo sapiens, UniProt P11488). Kind of assay: Competition with Gβγ subunits for binding to Gtα.

T3 sequence (P63096 whole entry): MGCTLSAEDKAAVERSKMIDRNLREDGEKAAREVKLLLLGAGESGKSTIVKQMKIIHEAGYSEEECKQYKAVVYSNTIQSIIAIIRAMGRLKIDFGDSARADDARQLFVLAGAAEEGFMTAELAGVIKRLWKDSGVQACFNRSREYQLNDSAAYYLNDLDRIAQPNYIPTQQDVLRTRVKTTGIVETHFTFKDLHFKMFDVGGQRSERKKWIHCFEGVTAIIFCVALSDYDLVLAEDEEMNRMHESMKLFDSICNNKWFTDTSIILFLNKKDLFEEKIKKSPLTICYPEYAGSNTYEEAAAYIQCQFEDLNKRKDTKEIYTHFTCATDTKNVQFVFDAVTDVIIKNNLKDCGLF
T4 sequence (P63096 2-354 limits assumed): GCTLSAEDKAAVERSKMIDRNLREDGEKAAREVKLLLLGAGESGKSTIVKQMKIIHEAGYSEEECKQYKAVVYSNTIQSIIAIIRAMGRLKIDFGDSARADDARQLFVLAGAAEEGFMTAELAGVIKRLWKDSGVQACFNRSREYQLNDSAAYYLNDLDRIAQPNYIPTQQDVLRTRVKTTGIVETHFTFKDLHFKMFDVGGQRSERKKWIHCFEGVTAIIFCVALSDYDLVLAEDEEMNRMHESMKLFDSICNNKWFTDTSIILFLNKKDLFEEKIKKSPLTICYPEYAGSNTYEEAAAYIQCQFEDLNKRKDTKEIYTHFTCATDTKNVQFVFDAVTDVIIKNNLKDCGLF
T1 sequence (P04899 2-355 limits assumed): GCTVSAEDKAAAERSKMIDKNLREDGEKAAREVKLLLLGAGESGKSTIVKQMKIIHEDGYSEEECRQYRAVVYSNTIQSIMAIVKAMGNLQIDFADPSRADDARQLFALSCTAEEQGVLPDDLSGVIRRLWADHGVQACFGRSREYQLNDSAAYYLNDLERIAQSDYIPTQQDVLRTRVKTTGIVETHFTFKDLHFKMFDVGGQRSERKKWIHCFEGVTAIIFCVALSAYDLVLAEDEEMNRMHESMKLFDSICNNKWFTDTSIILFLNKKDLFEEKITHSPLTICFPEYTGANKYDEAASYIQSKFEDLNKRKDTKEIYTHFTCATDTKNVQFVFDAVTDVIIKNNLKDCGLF
Sequence of Gtα (P11488 whole entry): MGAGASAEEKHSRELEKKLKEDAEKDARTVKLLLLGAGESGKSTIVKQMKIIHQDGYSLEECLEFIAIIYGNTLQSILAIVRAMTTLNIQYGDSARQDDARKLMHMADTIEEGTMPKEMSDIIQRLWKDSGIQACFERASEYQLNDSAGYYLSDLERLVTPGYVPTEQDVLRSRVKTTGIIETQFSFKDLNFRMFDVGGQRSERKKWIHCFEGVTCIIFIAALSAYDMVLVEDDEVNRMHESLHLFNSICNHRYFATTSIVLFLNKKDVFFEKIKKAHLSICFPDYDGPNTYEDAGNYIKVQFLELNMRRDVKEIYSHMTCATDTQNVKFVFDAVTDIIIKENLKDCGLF
T2 sequence (P04899 whole entry): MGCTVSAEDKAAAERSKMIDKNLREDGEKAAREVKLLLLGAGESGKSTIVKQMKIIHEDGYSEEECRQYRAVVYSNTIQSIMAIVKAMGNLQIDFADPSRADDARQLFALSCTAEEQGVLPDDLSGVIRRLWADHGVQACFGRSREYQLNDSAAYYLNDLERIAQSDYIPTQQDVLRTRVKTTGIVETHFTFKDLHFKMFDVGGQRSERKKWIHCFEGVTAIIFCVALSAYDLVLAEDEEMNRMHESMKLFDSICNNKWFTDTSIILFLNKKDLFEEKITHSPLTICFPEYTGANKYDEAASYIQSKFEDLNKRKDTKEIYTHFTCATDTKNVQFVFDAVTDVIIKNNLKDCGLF

For “TMGEEDFFDLLAKSQSKRMDDQRVDLAG-NH2 [GPR consensus peptide]”, the IC50 (as a rule, the concentration that gives 50% inhibition) in assay [1] is approximately 200 nM; at Giα2 it was approximately 200 nM; at Giα1 (G-protein 100 nM, 30 min, 24° C., read-out: IC50 for inhibition of GTPγS binding to Giα1), approximately 200 nM; in assay [2], approximately 200 nM.

B1: AGS3-GPR: GPR domain of AGS3 (Pro463-Ser650) containing the four GPR motifs, GST or His-tagged (protein)
chain: PREGSHSPLDSADVRVQVPRTGIPRAPSSDEECFFDLLSKFQSSRMDDQRCPLEEGQAGAAEATAAPTLEERAAQPSVTASPQTEEFFDLIASSQSRRLDDQRASVGSLPGLRITLNNVGHLRGDGDPQEPGDEFFNMLIKYQSSRIDDQRCPPPDVLPRGPTMPDEDFFSLIQRVQAKRMDEQRVDL
modifications: left off: a dimerising Fc or GST
notes: GPR domain of AGS3 (Pro463-Ser650) containing the four GPR motifs, GST or His-tagged
For the molecule B1, the “competition with Gβγ subunits for binding to Gtα” value in the assay with Gtα is on record as “effectively competed”. The “GTPγS binding to Giα1 (AGS3-GPR protein)” value with Giα1 was “inhibited”.
